Measured values published in patent publication US20230321024A1, “METHODS OF TREATING VISUAL DISORDERS USING DAILY LOW DOSING OF A RETINOID COMPOUND” (ELUMINEX BIOSCIENCES (SUZHOU) LIMITED, priority 2020, published 2023).

Tests used:
[1] = Human pharmacokinetics of circulating 9-cis-retinol in blood from completed clinical trials after oral 9-cis-retinyl acetate; assay type: in vivo
Method: FIG. 2 plots human pharmacokinetic (PK) data for the circulating levels of 9-cis-retinol in the blood from completed clinical trials where 9-cis-retinyl acetate was administered orally.
9-cis-retinyl acetate is the acetate ester of 9-cis-retinol. Acetate esters like 9-cis-retinyl acetate are generally short-lived because they are readily hydrolyzed either at physiological pH or by esterases in the blood and other parts of the body.
Thus, further discussion focuses on 9-cis-retinol.
Collated in FIG. 2 are human PK data that show a Cmax between 4 and 7 hours for 9-cis-retinol independent of initial dose administered. A low steady level of 9-cis-retinol is achieved in ˜24 hours. […] The circulating 9-cis-retinol is observed at similar levels from about 24 hours through at least 700 hours after a single dose.
(§1) Clearance from the blood is rapid above ˜8 nM, but quickly drops to zero or near zero below that level. Steady state levels (from ˜24 hrs post dose) are 4.57 nM (10 mg/m^2 dose, 83 samples), 8.32 nM (40 mg/m^2 dose, 149 samples), and 7.46 nM (5 to 60 mg/m^2, 629 samples).

[2] = Population PK model (2 compartment, concentration-dependent clearance) for 9-cis-retinol built on the observed clinical data; conditions: human blood, FIG. 4
From the text: FIG. 3 schematically illustrates a 2 compartment PK model used to describe the observed clinical data.
From the observed PK data analyzed, a population PK model for levels of 9-cis-retinol was built. Based on the observed clinical data, a 2 compartment PK model was constructed (FIG. 3). This kinetic model for 9-cis-retinol includes a recirculation feature that maintains 9-cis-retinol levels for long periods of time. Two features of this model include apparent concentration-dependent clearance of 9-cis-retinol from the blood, and apparent zero or close to zero clearance at low concentrations. This accounts for long recirculating levels of 9-cis-retinol, seen in samples consistently at 100 hours, 300 hours and 700 hours post last dose administered.
as §1

Structure (SMILES) | Persistence of 9-cis-retinyl acetate in human blood samples following oral dosing ([1]; human, in vivo, po) | Steady state levels (from ~24 hrs post dose) ([1]; 10 mg/m^2 dose, 83 samples) [nM] | Steady state levels (from ~24 hrs post dose) ([1]; 40 mg/m^2 dose, 149 samples) [nM] | Steady state levels (from ~24 hrs post dose) ([1]; 5 to 60 mg/m^2, 629 samples) [nM] | Time through which circulating 9-cis-retinol is observed at similar levels ([1]; human, in vivo) | Cmax (time of) for 9-cis-retinol ([1]; human, in vivo, po) [h] | Time at which a low steady level of 9-cis-retinol is achieved ([1]; human, in vivo, po) | Concentration above which clearance from the blood is rapid (drops to zero or near zero below) [2] [nM]
CC(=O)OC/C=C(C)/C=C/C=C(C)\C=C\C1=C(C)CCCC1(C)C [9-cis-retinyl acetate, (2E,4E,6Z,8E)-3,7-dimethyl-9-(2,6,6-trimethylcyclohex-1-en-1-yl)nona-2,4,6,8-tetraen-1-yl acetate] | extremely short lived and rapidly hydrolyzed to 9-cis-retinol |  |  |  |  |  |  | 
CC1=C(/C=C/C(C)=C\C=C\C(C)=C\CO)C(C)(C)CCC1 [9-cis-retinol] |  | 4.57 | 8.32 | 7.46 | at least 700 hours | 4 to 7 | about 24 hours | ~8
